# Measured values: paper PMC8536644, “Enigmatic mechanism of the N-vinylpyrrolidone hepatocarcinogenicity in the rat” (Archives of Toxicology, 2021)
# Read-outs that look alike come from different tables or passages of the source. Marks after values point to notes of the source that are not given here.
# How the values were obtained:
# [1] = Trypan Blue viability of the single cell suspension, lung; assay type: in vivo, rat; settings: Wistar, rat, lung, inhaled, lung, 5 days
# Description: The organ parts (see above) were washed in mincing buffer (50 mM EDTA in HBSS [without Ca^2+ and Mg^2+] pH 7.5: DMSO 9:1 (v/v), the latter added shortly before use, stored at 4 °C), cut into 1 to 2-mm pieces in ice-cold mincing buffer and transferred to a cell sieve with 70-µm pores. The viability of the cell suspension was evaluated by the Trypan Blue Assay (Strober [2001]).
# [2] = system: Sprague–Dawley rats; settings: cited from earlier work; for Larynx squamous carcinoma, incidence / Liver hepatocellular carcinoma, incidence / Nasal cavity adenocarcinoma, incidence / Nasal cavity adenoma, incidence: 24 months inhalation, 60 animals, ref Klimisch et al. (1997a)
# [3] = system: mice; parameters: method as in Klimisch et al. [1997b]; settings: inhalation, ref Klimisch et al. [1997b]; cited from earlier work
# [4] = system: L5178Y mouse lymphoma cells; parameters: method as in MAK [1994]; settings: ref MAK [1994]; cited from earlier work
compound,measurement,setting,value
"C=CN1CCCC1=O [NVP, N-vinylpyrrolidone]",viability at 5 days,"[1]; female, 20 ppm, female, Comet with FPG (Table 11), 20 ppm inhalation, read-out: Viability (%) (mean ± SD)",98 ± 1%
same,viability at 5 days,"[1]; female, 20 ppm, female, no FPG, 20 ppm inhalation, individual animals, read-out: Individual viability (%)",98%
same,viability at 5 days,"[1]; female, 20 ppm, female, no FPG, 20 ppm inhalation, read-out: Viability (%) (mean ± SD)",98 ± 1%
same,viability at 5 days,"[1]; male, 5 ppm, male, Comet with FPG (Table 10), 5 ppm inhalation, individual animals, read-out: Individual viability (%)",97%
same,viability at 5 days,"[1]; male, 5 ppm, male, Comet with FPG (Table 10), 5 ppm inhalation, read-out: Viability (%) (mean ± SD)",98 ± 1%
same,viability at 5 days,"[1]; male, 5 ppm, male, no FPG, 5 ppm inhalation, individual animals, read-out: Individual viability (%)",97%
same,viability at 5 days,"[1]; male, 5 ppm, male, no FPG, 5 ppm inhalation, read-out: Viability (%) (mean ± SD)",98 ± 1%
same,viability at 5 days,"[1]; male, 10 ppm, male, Comet with FPG (Table 10), 10 ppm inhalation, individual animals, read-out: Individual viability (%)",99%
same,viability at 5 days,"[1]; male, 10 ppm, male, Comet with FPG (Table 10), 10 ppm inhalation, read-out: Viability (%) (mean ± SD)",98 ± 2%
same,viability at 5 days,"[1]; male, 10 ppm, male, no FPG, 10 ppm inhalation, individual animals, read-out: Individual viability (%)",99%
same,viability at 5 days,"[1]; male, 10 ppm, male, no FPG, 10 ppm inhalation, read-out: Viability (%) (mean ± SD)",98 ± 2%
same,viability at 5 days,"[1]; male, 20 ppm, male, Comet with FPG (Table 10), 20 ppm inhalation, individual animals, read-out: Individual viability (%)",100%
same,viability at 5 days,"[1]; male, 20 ppm, male, Comet with FPG (Table 10), 20 ppm inhalation, read-out: Viability (%) (mean ± SD)",99 ± 1%
same,viability at 5 days,"[1]; male, 20 ppm, male, no FPG, 20 ppm inhalation, individual animals, read-out: Individual viability (%)",100%
same,viability at 5 days,"[1]; male, 20 ppm, male, no FPG, 20 ppm inhalation, read-out: Viability (%) (mean ± SD)",99 ± 1%
same,"Larynx squamous carcinoma, incidence","[2]; female, 5 ppm",0
same,"Liver hepatocellular carcinoma, incidence","[2]; female, 5 ppm",3
same,"Nasal cavity adenocarcinoma, incidence","[2]; female, 5 ppm",0
same,"Nasal cavity adenoma, incidence","[2]; female, 5 ppm",2
same,"Larynx squamous carcinoma, incidence","[2]; female, 10 ppm",0
same,"Liver hepatocellular carcinoma, incidence","[2]; female, 10 ppm",6*
same,"Nasal cavity adenocarcinoma, incidence","[2]; female, 10 ppm",0
same,"Nasal cavity adenoma, incidence","[2]; female, 10 ppm",8**
same,"Larynx squamous carcinoma, incidence","[2]; female, 20 ppm",4
same,"Liver hepatocellular carcinoma, incidence","[2]; female, 20 ppm",26***
same,"Nasal cavity adenocarcinoma, incidence","[2]; female, 20 ppm",4*
same,"Nasal cavity adenoma, incidence","[2]; female, 20 ppm",14***
same,"Larynx squamous carcinoma, incidence","[2]; male, 5 ppm",0
same,"Liver hepatocellular carcinoma, incidence","[2]; male, 5 ppm",6*
same,"Nasal cavity adenocarcinoma, incidence","[2]; male, 5 ppm",0
same,"Nasal cavity adenoma, incidence","[2]; male, 5 ppm",9**
same,"Larynx squamous carcinoma, incidence","[2]; male, 10 ppm",0
same,"Liver hepatocellular carcinoma, incidence","[2]; male, 10 ppm",5*
same,"Nasal cavity adenocarcinoma, incidence","[2]; male, 10 ppm",4*
same,"Nasal cavity adenoma, incidence","[2]; male, 10 ppm",9***
same,"Larynx squamous carcinoma, incidence","[2]; male, 20 ppm",4
same,"Liver hepatocellular carcinoma, incidence","[2]; male, 20 ppm",17***
same,"Nasal cavity adenocarcinoma, incidence","[2]; male, 20 ppm",6*
same,"Nasal cavity adenoma, incidence","[2]; male, 20 ppm",11***
same,Lowest tested dose at which hepatocellular carcinomas were observed,"[2]; rat, inhalation, ref Klimisch et al. [1997a]",5 ppm
same,"Concentration at which erythrocytes, hematocrit and hemoglobin were reduced",[3],15 ppm
same,"LOAEC, liver (increased gamma-glutamyl transpeptidase and glutathione)",[3],10 ppm
same,"LOAEC, nasal mucosa (inflammation, olfactory epithelium atrophy, basal cell hyperplasia)",[3],5 ppm
same,Mammalian cell mutation tests (HGPRT and TK locus) result,[4],negative
